Several values for one entry are separate records, joined by “and”; a condition that tells them apart may be missing. Equal values may be shown once. Read-outs that look alike come from different tables or passages of the source.
Tests used:
[1] = tested on: BMDCs; assay: LDH release (lytic cell death, pyroptosis) from LPS-primed BMDCs; type: cell-based, mouse; conditions: for Average (% positive control): LDH release; for cytotoxicity at 25 µM / cytotoxicity at 50 µM / cytotoxicity at 100 µM / cytotoxicity at 75 µM: Mus musculus, BMDC
Outline: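 Mouse BMDCs (7-9 days differentiated, GM-CSF) primed with 50 ng ml^−1 E. coli K12 LPS for 3 hours, then exposed 3 hours to compounds (50 μM unless indicated) or activators (nigericin 5 μM; R837, CL097 100 μM). Lytic death measured as LDH release by colorimetric assay, triplicate wells.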

[2] = molecular target: T1, NLRP3 inflammasome (Mus musculus, UniProt Q8R4B8); assay: IL-1β release from LPS-primed BMDCs (ELISA) as readout of NLRP3 inflammasome activation; type: cell-based
T1 construct: endogenous in cells; host or cells: primary mouse bone marrow-derived dendritic cells (BMDCs), LPS-primed
T1 sequence (Q8R4B8 whole entry): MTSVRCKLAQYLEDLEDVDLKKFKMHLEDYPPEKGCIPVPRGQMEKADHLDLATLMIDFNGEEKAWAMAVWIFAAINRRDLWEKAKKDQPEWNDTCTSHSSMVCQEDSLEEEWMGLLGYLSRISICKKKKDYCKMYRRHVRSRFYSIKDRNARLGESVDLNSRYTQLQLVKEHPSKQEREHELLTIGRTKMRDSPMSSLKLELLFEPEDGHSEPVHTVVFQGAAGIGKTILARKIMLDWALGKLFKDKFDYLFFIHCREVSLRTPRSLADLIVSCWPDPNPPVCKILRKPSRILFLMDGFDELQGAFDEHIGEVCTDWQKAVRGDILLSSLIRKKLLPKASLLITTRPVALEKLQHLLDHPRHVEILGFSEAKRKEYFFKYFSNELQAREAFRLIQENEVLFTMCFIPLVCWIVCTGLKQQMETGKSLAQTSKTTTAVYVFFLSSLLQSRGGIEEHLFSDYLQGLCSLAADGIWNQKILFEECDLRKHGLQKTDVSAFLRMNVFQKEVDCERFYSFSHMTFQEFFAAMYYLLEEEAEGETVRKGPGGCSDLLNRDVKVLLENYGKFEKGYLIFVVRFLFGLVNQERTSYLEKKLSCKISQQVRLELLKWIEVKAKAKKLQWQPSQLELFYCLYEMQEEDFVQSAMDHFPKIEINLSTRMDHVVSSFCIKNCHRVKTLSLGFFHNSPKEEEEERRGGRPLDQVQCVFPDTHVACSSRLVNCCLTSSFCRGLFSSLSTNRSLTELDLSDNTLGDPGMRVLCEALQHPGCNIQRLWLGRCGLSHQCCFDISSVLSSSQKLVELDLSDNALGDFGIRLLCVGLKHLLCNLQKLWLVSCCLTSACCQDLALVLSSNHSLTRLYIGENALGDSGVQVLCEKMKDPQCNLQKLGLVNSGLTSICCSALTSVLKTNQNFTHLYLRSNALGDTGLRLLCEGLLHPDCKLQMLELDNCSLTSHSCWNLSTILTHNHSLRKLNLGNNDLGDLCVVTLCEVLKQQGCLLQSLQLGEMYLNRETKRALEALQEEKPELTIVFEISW
Outline: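 NLRP3 inflammasome activation was read out as IL-1β released into the supernatant, measured by ELISA. Murine BMDCs were primed with LPS (50 ng ml^−1, 3 hours), then incubated with compounds for 3 hours, with each condition run in three technical replicates. Nigericin at 5 μM acted as the positive control activator, and IL-1β release was also expressed as a percentage of that control.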

[3] = compound 50 μM, positive control nigericin 5 μM
[4] = compound 50 μM, LPS-primed BMDCs, read-out: Average LDH release (% of max.)
[5] = single replicates, compound 50 μM, LPS-primed BMDCs, read-out: LDH release (% of max.)
[6] = IL-1β release, compound 50 μM, positive control nigericin 5 μM
[7] = compound 50 μM, LPS-primed BMDCs
[8] = single replicates, compound 50 μM, LPS-primed BMDCs

SMILES	Average (% positive control) [1, 3]	cytotoxicity at 50 µM [1, 4]	cytotoxicity at 50 µM [1, 5]	Average (% positive control) [2, 6]	Average IL-1β [2, 7]	IL-1β [2, 8]	further results
O=C(NCCCc1ccccc1)Nc1ccc2ncccc2c1 [EN11-13, 1-(3-phenylpropyl)-3-(quinolin-6-yl)urea]							Average (% positive control) ([1]; 25 μM, positive control EN22 25 μM): 15.011 % positive control; Average (% positive control) ([1]; 50 μM, positive control EN22 25 μM): 20.209 % positive control; Average (% positive control) ([1]; 100 μM, positive control EN22 25 μM): 31.963 % positive control; cytotoxicity at 25 µM ([1]; 25 μM, EN11 series table, read-out: Average LDH release (% of max.)): 7.63%; cytotoxicity at 25 µM ([1]; 25 μM, individual replicate values, EN11 series table, read-out: LDH release (% of max.)): 7.55%; cytotoxicity at 50 µM ([1]; 50 μM, EN11 series table, read-out: Average LDH release (% of max.)): 10.3%; cytotoxicity at 50 µM ([1]; 50 μM, individual replicate values, EN11 series table, read-out: LDH release (% of max.)): 10.4%; cytotoxicity at 100 µM ([1]; 100 μM, individual replicate values, read-out: LDH release (% of max.)): 19.3%; cytotoxicity at 100 µM ([1]; 100 μM, read-out: Average LDH release (% of max.)): 16.3%; Average IL-1β ([2]; 25 μM, EN11 series table): 0.011 ng/mL; IL-1β ([2]; 25 μM, individual replicate values, EN11 series table): 0.000 ng/mL and 0.011 ng/mL and 0.023 ng/mL; Average IL-1β ([2]; 50 μM, EN11 series table): 0.067 ng/mL; IL-1β ([2]; 50 μM, individual replicate values, EN11 series table): 0.067 ng/mL; Average IL-1β ([2]; 100 μM): 0.297 ng/mL; IL-1β ([2]; 100 μM, individual replicate values): 0.243 ng/mL and 0.331 ng/mL and 0.316 ng/mL; Average (% positive control) ([2]; IL-1β, 25 μM, positive control EN22 25 μM): 0.764 % positive control; Average (% positive control) ([2]; IL-1β, 50 μM, positive control EN22 25 μM): 4.560 % positive control; Average (% positive control) ([2]; IL-1β, 100 μM, positive control EN22 25 μM): 20.130 % positive control
COc1ccc(F)cc1NC(=O)NC(c1nc(-c2cccnc2)no1)C(C)C (stereo not drawn) [L01.007, 1-(5-fluoro-2-methoxy-phenyl)-3-{2-methyl-1-[3-(pyridin-3-yl)-1,2,4-oxadiazol-5-yl]propyl}-urea]	27.756 % positive control	20.3%	17.8%	16.422 % positive control	1.177 ng/mL	0.859 ng/mL and 1.572 ng/mL and 1.101 ng/mL	
CC(C)C(NC(=O)Nc1ccc(Cl)cc1)c1nc(-c2ccccc2)no1 (stereo not drawn) [L01.097, 1-(4-chlorophenyl)-3-[2-methyl-1-(3-phenyl-1,2,4-oxadiazol-5-yl)-propyl]urea]	51.271 % positive control	37.5%	39.5%	1.765 % positive control	0.126 ng/mL	0.121 ng/mL and 0.143 ng/mL and 0.116 ng/mL	
Cc1ccc(NC(=O)Nc2ccccc2)cc1NC(=O)NC1CC1 [L01.028, 3-cyclopropyl-1-{2-methyl-5-[(phenyl-carbamoyl)amino]-phenyl}urea]	19.825 % positive control	14.5%	12.6%	9.988 % positive control	0.716 ng/mL	0.686 ng/mL and 0.757 ng/mL and 0.705 ng/mL	
Cc1c(F)cccc1NC(=O)Nc1cccc(Cl)c1 [AH3, 1-(3-chlorophenyl)-3-(3-fluoro-2-methylphenyl) urea]							Average (% positive control) ([1]; 25 μM, positive control EN22 10 μM): 16.733 % positive control; Average (% positive control) ([1]; 50 μM, positive control EN22 10 μM): 29.496 % positive control; Average (% positive control) ([1]; 75 μM, positive control EN22 10 μM): 44.370 % positive control; cytotoxicity at 25 µM ([1]; 25 μM, AH series table, read-out: Average LDH release (% of max.)): 12.9%; cytotoxicity at 25 µM ([1]; 25 μM, individual replicate values, AH series table, read-out: LDH release (% of max.)): 12.8%; cytotoxicity at 50 µM ([1]; 50 μM, AH series table, read-out: Average LDH release (% of max.)): 22.7%; cytotoxicity at 50 µM ([1]; 50 μM, individual replicate values, AH series table, read-out: LDH release (% of max.)): 22.2%; cytotoxicity at 75 µM ([1]; 75 μM, individual replicate values, read-out: LDH release (% of max.)): 34.6%; cytotoxicity at 75 µM ([1]; 75 μM, read-out: Average LDH release (% of max.)): 34.1%; Average IL-1β ([2]; 25 μM, AH series table): 0.588 ng/mL; IL-1β ([2]; 25 μM, individual replicate values, AH series table): 0.540 ng/mL and 0.630 ng/mL and 0.593 ng/mL; Average IL-1β ([2]; 50 μM, AH series table): 1.519 ng/mL; IL-1β ([2]; 50 μM, individual replicate values, AH series table): 1.267 ng/mL and 1.615 ng/mL and 1.675 ng/mL; Average IL-1β ([2]; 75 μM, AH series table): 2.224 ng/mL; IL-1β ([2]; 75 μM, individual replicate values, AH series table): 2.288 ng/mL and 2.351 ng/mL and 2.032 ng/mL; Average (% positive control) ([2]; IL-1β, 25 μM, positive control EN22 10 μM): 5.875 % positive control; Average (% positive control) ([2]; IL-1β, 50 μM, positive control EN22 10 μM): 15.193 % positive control; Average (% positive control) ([2]; IL-1β, 75 μM, positive control EN22 10 μM): 22.240 % positive control
Cc1ccc(NC(=O)NCc2nc(Cc3ccccc3)no2)cc1 [L01.088, 3-[(3-benzyl-1,2,4-oxadiazol-5-yl)methyl]-1-(4-methylphenyl)urea]	7.174 % positive control	5.25%	5.68%	0.866 % positive control	0.062 ng/mL	0.069 ng/mL and 0.058 ng/mL and 0.059 ng/mL	
Cc1ccc(NC(=O)Nc2ccccc2)cc1NC(=O)C(F)F [L01.116, 2,2-difluoro-N-{2-meth-yl-5-[(phenylcarbamo-yl)amino]phenyl}acet-amide]	24.685 % positive control	18.1%	18%	16.099 % positive control	1.154 ng/mL	1.107 ng/mL and 1.192 ng/mL and 1.163 ng/mL	
N#Cc1ccc(NC(=O)Nc2ccccc2)cc1 [L01.038, 1-(4-cyanophenyl)-3-phenylurea]	16.337 % positive control	12%	12.8%	1.956 % positive control	0.140 ng/mL	0.166 ng/mL and 0.127 ng/mL and 0.128 ng/mL	
CS(=O)(=O)c1cc(NC(=O)Nc2ccccc2)ccc1Cl [L01.035, 3-(4-chloro-3-methane-sulfonylphenyl)-1-phenylurea]	11.044 % positive control	8.08%	8.46%	3.211 % positive control	0.230 ng/mL	0.321 ng/mL and 0.189 ng/mL and 0.181 ng/mL	
CCOc1ccc(NC(=O)NCc2nc(-c3cccc(OC)c3)no2)cc1OCC [L01.013, 1-(3,4-diethoxyphenyl)-3-{[3-(3-methoxyphen-yl)-1,2,4-oxadiazol-5-yl]methyl}urea]	10.303 % positive control	7.54%	8.75%	1.677 % positive control	0.120 ng/mL	0.118 ng/mL and 0.126 ng/mL and 0.117 ng/mL	
Cc1cc(NC(=O)Nc2ccccc2)ccc1N1CCCC1 [L01.025, 3-[3-methyl-4-(pyrrol-idin-1-yl)phenyl]-1-phenylurea]	19.631 % positive control	14.4%	15%	5.130 % positive control	0.368 ng/mL	0.333 ng/mL and 0.280 ng/mL and 0.490 ng/mL	
COc1ccc(NC(=O)Nc2ccccc2)cc1Cl [L01.026, 3-(3-chloro-4-methoxy-phenyl)-1-phenylurea]	14.776 % positive control	10.8%	9.23%	6.911 % positive control	0.495 ng/mL	0.452 ng/mL and 0.473 ng/mL and 0.562 ng/mL	
O=C(Nc1ccccc1)Nc1ccc(C(=O)N2CCC2)cc1 [L01.008, 1-[4-(azetidine-1-carbon-yl)phenyl]-3-phenylurea]	13.046 % positive control	9.54%	11%	4.638 % positive control	0.332 ng/mL	0.361 ng/mL and 0.324 ng/mL and 0.313 ng/mL	
O=C(Nc1ccccc1)Nc1ccc2c(c1)CCC2 [L01.066, 3-(2,3-dihydro-1H-inden-5-yl)-1-phenyl-urea]	19.592 % positive control	14.3%	15.6%	3.698 % positive control	0.265 ng/mL	0.346 ng/mL and 0.256 ng/mL and 0.193 ng/mL	

— US20240277658A1, “NLRP3 ACTIVATORS FOR USE IN THE TREATMENT OF INFECTIOUS DISEASES OR CANCER BY ACTIVATING NLRP3 INFLAMMASOME” (ALBERT-LUDWIGS-UNIVERSITÄT FREIBURG, priority 2020, published 2024)
